This note sets out measurements from patent publication US20240287172A1, “PROTEIN BINDERS TO IRHOM2 EPITOPES” (SCIRHOM GMBH, priority 2019, published 2024).

Molecules are shown by their SMILES.

The inhibition is the share of the control response that was lost under treatment. A low value points to little suppression.

The test relates to PMA-induced release of endogenous HB-EGF from human U-937 cells. The test can be described thus: ELISA-based HB-EGF release assay, PMA-induced, U-937 cells. It is filed as cell-based. As to conditions: PMA 25 ng/ml, 6 hours, murine (m) and chimeric (ch) antibodies and IgG at 3 μg/ml, Batimastat at 10 μM. How it is done:
In brief, on day 1, Nunc black MaxiSorp® 96-well plates (Thermo Fisher Scientific, USA) were coated for 7 hours with 100 μl per well of rat anti-human HB-EGF capture antibody (provided as part of the DuoSet ELISA kit) at 2 μg/ml TBS at room temperature. Capture antibody solution was removed and MaxiSorp® plates were blocked with 300 μl per well of TBS, 1% BSA at room temperature for 3 hours. […]
Following another round of 4 times washing with 350 μl TBS-T (Carl Roth, Germany) per well on a 96-head plate washer (Tecan Group, Switzerland) and careful removal of all buffer traces after the fourth cycle, 100 μl AttoPhos substrate solution (Promega, USA) per well was added for incubation in the dark at room temperature for 1 hour. Using an infinite M1000 (Tecan Group, Switzerland) microplate reader, the fluorescence of each well was collected at an excitation wavelength of 435 nm and an emission wavelength of 555 nm. […]
In general terms: ELISA stands for enzyme-linked immunosorbent assay.

The molecule `CNC(=O)[C@H](Cc1ccccc1)NC(=O)[C@H](CC(C)C)[C@H](CSc1cccs1)C(=O)NO` [Batimastat] showed an inhibition at 10 µM of 100%.
